Test results taken from PubChem BioAssay AID330 (DTP/NCI, 2004).
Values joined by “and” are separate entries in the source; they are usually repeats but may differ in a detail not shown here. Equal entries are not always repeated. Inconclusive results and toxic doses are left out. How the source made its calls: active means survival T/C of 150% or more; inactive means T/C below 125% in these data. Peptide text beside a SMILES is read from it. * marks the point of attachment. For = O=C*

Tested on: P388 leukemia ip, CD2F1 mice, survival T/C
Assay: NCI In Vivo Anticancer Drug Screen. Data for tumor model P388 Leukemia (intraperitoneal) in CD2F1 (CDF1) mice
Details: endpoint: median survival time, higher = longer survival
Method in brief: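 Mice carrying the transplanted tumor received test compound or vehicle. Survival was recorded in each group, and the value is the treated-group measurement divided by that of the vehicle-treated control group.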

[1] = dose: 50.0 mg/kg/injection, schedule: Q01DX005 (ip), vehicle: saline with Tween-80
[2] = dose: 100.0 mg/kg/injection, schedule: Q01DX005 (ip), vehicle: saline with Tween-80
[3] = dose: 200.0 mg/kg/injection, schedule: Q01DX005 (ip), vehicle: saline with Tween-80
[4] = dose: 100.0 mg/kg/injection, schedule: Q01DX009 (ip), vehicle: saline with Tween-80
[5] = dose: 50.0 mg/kg/injection, schedule: Q01DX009 (ip), vehicle: saline
[6] = dose: 60.0 mg/kg/injection, schedule: Q01DX005 (ip), vehicle: saline with Tween-80
[7] = dose: 120.0 mg/kg/injection, schedule: Q01DX005 (ip), vehicle: saline with Tween-80
[8] = dose: 240.0 mg/kg/injection, schedule: Q01DX005 (ip), vehicle: saline with Tween-80
[9] = dose: 50.0 mg/kg/injection, schedule: Q01DX005 (ip), vehicle: Klucel (hydroxypropylcellulose) (HPC)
[10] = dose: 100.0 mg/kg/injection, schedule: Q01DX005 (ip), vehicle: Klucel (hydroxypropylcellulose) (HPC)
[11] = dose: 200.0 mg/kg/injection, schedule: Q01DX005 (ip), vehicle: Klucel (hydroxypropylcellulose) (HPC)
[12] = dose: 100.0 mg/kg/injection, schedule: Q01DX001 (ip), vehicle: Klucel (hydroxypropylcellulose) (HPC)
[13] = dose: 100.0 mg/kg/injection, schedule: Q01DX009 (ip), vehicle: saline
[14] = dose: 200.0 mg/kg/injection, schedule: Q01DX009 (ip), vehicle: saline

Measured: T/C

CCCn1c2nc(=O)n(C)c(=O)c-2cc2ccccc21
inactive: dose: 10.0 mg/kg/injection, schedule: Q01DX009 (ip), vehicle: saline with Tween-80 105 % of control | dose: 20.0 mg/kg/injection, schedule: Q01DX009 (ip), vehicle: saline with Tween-80 116 % of control | dose: 40.0 mg/kg/injection, schedule: Q01DX009 (ip), vehicle: saline with Tween-80 111 % of control

Nc1c(C(=O)NCCc2ccccc2)c2nc3c(C(=O)NCCc4ccccc4)cccc3oc-2cc1=O
inactive: [1] 96 % of control | [2] 89 % of control | [3] 105 % of control

CN1CCC(CO)C1 (configuration not stated)
inactive: dose: 12.5 mg/kg/injection, schedule: Q01DX009 (ip), vehicle: water 91 % of control | dose: 25.0 mg/kg/injection, schedule: Q01DX009 (ip), vehicle: water 91 % of control | dose: 50.0 mg/kg/injection, schedule: Q01DX009 (ip), vehicle: water 91 % of control

COC1CC(OC2CCC3(C)C(=CCC4C3C(OC(C)=O)C(OC(=O)CC(C)C)C3(C)C(C(C)=O)CCC43O)C2)OC(C)C1OC1CC(OC)C(OC2CC(OC)C(OC3OC(C)C(OC4OC(CO)C(O)C(O)C4O)C(OC)C3O)C(C)O2)C(C)O1 (configuration not stated)
inactive: dose: 4.13 mg/kg/injection, schedule: Q01DX005 (ip), vehicle: Klucel (hydroxypropylcellulose) (HPC) 95 % of control | dose: 8.25 mg/kg/injection, schedule: Q01DX005 (ip), vehicle: Klucel (hydroxypropylcellulose) (HPC) 101 % of control | dose: 16.5 mg/kg/injection, schedule: Q01DX005 (ip), vehicle: Klucel (hydroxypropylcellulose) (HPC) 101 % of control

O=C1OCc2cnccc21
inactive: dose: 8.75 mg/kg/injection, schedule: Q01DX005 (ip), vehicle: Klucel (hydroxypropylcellulose) (HPC) 98 % of control | dose: 17.5 mg/kg/injection, schedule: Q01DX005 (ip), vehicle: Klucel (hydroxypropylcellulose) (HPC) 100 % of control | dose: 35.0 mg/kg/injection, schedule: Q01DX005 (ip), vehicle: Klucel (hydroxypropylcellulose) (HPC) 97 % of control

NNC(=O)CNC(=O)Nc1n[nH]c(=S)s1
inactive: dose: 50.0 mg/kg/injection, schedule: Q01DX009 (ip), vehicle: saline with Tween-80 101 % of control | [4] 95 % of control

COC1=Nc2ccccc2N2CCN=C12
inactive: dose: 12.5 mg/kg/injection, schedule: Q01DX009 (ip), vehicle: saline 86 % of control | dose: 25.0 mg/kg/injection, schedule: Q01DX009 (ip), vehicle: saline 100 % of control | [5] 100 % of control

CC(C)C(NC=O)C(=O)NCC(=O)NC(CO)C(=O)NC(CCC(=O)O)C(=O)O (configuration not stated) (For-VGSE-OH; configuration not given here)
inactive: dose: 9.0 mg/kg/injection, schedule: Q01DX005 (ip), vehicle: water 110 % of control | dose: 18.0 mg/kg/injection, schedule: Q01DX005 (ip), vehicle: water 101 % of control | dose: 36.0 mg/kg/injection, schedule: Q01DX005 (ip), vehicle: water 110 % of control | dose: 72.0 mg/kg/injection, schedule: Q01DX005 (ip), vehicle: water 110 % of control | dose: 144.0 mg/kg/injection, schedule: Q01DX005 (ip), vehicle: water 106 % of control

CN=C1NC(=O)C(c2ccccc2)S1 (configuration not stated)
inactive: [1] 99 % of control | [2] 99 % of control

O=C1C(Sc2ccccc2)CCCC1Sc1ccccc1 (configuration not stated)
inactive: dose: 25.0 mg/kg/injection, schedule: Q01DX009 (ip), vehicle: Klucel (hydroxypropylcellulose) (HPC) 109 % of control | dose: 50.0 mg/kg/injection, schedule: Q01DX009 (ip), vehicle: Klucel (hydroxypropylcellulose) (HPC) 100 % of control | dose: 100.0 mg/kg/injection, schedule: Q01DX009 (ip), vehicle: Klucel (hydroxypropylcellulose) (HPC) 98 % of control

O=C(Nc1cc(-c2ccccc2)[nH]n1)c1ccccc1
inactive: [6] 103 % of control | [7] 106 % of control | [8] 100 % of control

COc1ccc(N=Nc2c(-c3cccs3)nn(C(N)=S)c2C(F)(F)F)cc1
inactive: [9] 97 % of control | [10] 95 % of control | [11] 97 % of control

c1ccc(-c2nc3cc4ccccc4cc3nc2-c2ccccc2)cc1
inactive: [9] 105 % of control | [10] 100 % of control | [11] 99 % of control

COc1ccc(/C=N/N2CN(C(C)C(=O)O)B(NC34CC5CC(CC(C5)C3)C4)N=C2N)cc1OC (configuration not stated)
inactive: [6] 104 % of control | [7] 99 % of control | [8] 93 % of control

CN1CC2(CO)C(c3ccccc3)OC(c3ccccc3)C(CO)(C1)C2O (configuration not stated)
inactive: [6] 104 % of control and 100 % of control | [7] 107 % of control and 100 % of control | [8] 96 % of control

COc1cc(NC(=O)OCc2cccnc2)cc(OC)c1OC
inactive: [1] 98 % of control | [2] 98 % of control | [3] 93 % of control

COc1cc(CC(=O)O)c([N+](=O)[O-])cc1C
inactive: dose: 25.0 mg/kg/injection, schedule: Q01DX001 (ip), vehicle: Klucel (hydroxypropylcellulose) (HPC) 90 % of control | dose: 50.0 mg/kg/injection, schedule: Q01DX001 (ip), vehicle: Klucel (hydroxypropylcellulose) (HPC) 91 % of control | [12] 91 % of control

O=C(O)C1C(CCl)=C1CCl
inactive: dose: 60.0 mg/kg/injection, schedule: Q01DX005 (ip), vehicle: Klucel (hydroxypropylcellulose) (HPC) 100 % of control | dose: 120.0 mg/kg/injection, schedule: Q01DX005 (ip), vehicle: Klucel (hydroxypropylcellulose) (HPC) 104 % of control

CS(=O)(=O)OCCCCO
inactive: [4] 100 % of control | dose: 100.0 mg/kg/injection, schedule: Q04DX003 (ip), vehicle: saline with Tween-80 100 % of control | dose: 200.0 mg/kg/injection, schedule: Q01DX009 (ip), vehicle: saline with Tween-80 110 % of control | dose: 200.0 mg/kg/injection, schedule: Q04DX003 (ip), vehicle: saline with Tween-80 100 % of control | dose: 400.0 mg/kg/injection, schedule: Q01DX009 (ip), vehicle: saline with Tween-80 110 % of control | dose: 400.0 mg/kg/injection, schedule: Q04DX003 (ip), vehicle: saline with Tween-80 91 % of control

O=c1[nH]c2n[nH]c(=S)n2c2c1CCCC2
inactive: dose: 50.0 mg/kg/injection, schedule: Q04DX002 (ip), vehicle: saline with Tween-80 99 % of control | dose: 100.0 mg/kg/injection, schedule: Q04DX002 (ip), vehicle: saline with Tween-80 97 % of control | dose: 200.0 mg/kg/injection, schedule: Q04DX002 (ip), vehicle: saline with Tween-80 99 % of control

O=S(=O)(O)SCCCSS(=O)(=O)O
inactive: [5] 100 % of control | [13] 99 % of control | [14] 102 % of control

C/C(=N\NC(=S)NNC(=S)N(C)c1ccccc1)c1ccccc1
inactive: dose: 25.0 mg/kg/injection, schedule: Q01DX005 (ip), vehicle: Klucel (hydroxypropylcellulose) (HPC) 98 % of control | [9] 93 % of control | [10] 94 % of control | [11] 91 % of control

C#CCSc1n[nH]c(=O)n1C1CCCCC1
inactive: [6] 99 % of control | [7] 106 % of control | [8] 106 % of control

O=C(O)/C=C/c1ccc(O)c(O)c1
inactive: [5] 101 % of control and 103 % of control | [13] 101 % of control and 118 % of control | [14] 102 % of control and 107 % of control | dose: 400.0 mg/kg/injection, schedule: Q01DX009 (ip), vehicle: saline 100 % of control and 103 % of control | dose: 600.0 mg/kg/injection, schedule: Q01DX009 (ip), vehicle: saline 116 % of control

Nc1ncc2nc3c4ccccc4c(=O)cc-3oc2n1
inactive: [1] 96 % of control | [2] 96 % of control | [3] 91 % of control

COc1ccc2nc(C#N)ccc2c1
inactive: [1] 92 % of control | [2] 90 % of control | [3] 95 % of control

CC(C)SC(=S)Nc1cccc(F)c1
inactive: dose: 50.0 mg/kg/injection, schedule: Q01DX009 (ip), vehicle: suspension in saline 107 % of control | dose: 100.0 mg/kg/injection, schedule: Q01DX009 (ip), vehicle: suspension in saline 109 % of control | dose: 200.0 mg/kg/injection, schedule: Q01DX009 (ip), vehicle: suspension in saline 107 % of control

O=C(Nc1ccccc1)C1(C(=O)Nc2ccccc2)SSC(C(=O)Nc2ccccc2)(C(=O)Nc2ccccc2)SS1
inactive: [1] 107 % of control | [2] 96 % of control | [3] 89 % of control

Cc1ccc(C(N)=Nc2ccccc2)cc1
inactive: [6] 100 % of control

CCOC(=O)NC(=O)CNc1ncc([N+](=O)[O-])s1
inactive: [12] 100 % of control | dose: 200.0 mg/kg/injection, schedule: Q01DX001 (ip), vehicle: Klucel (hydroxypropylcellulose) (HPC) 108 % of control
